Values quoted from earlier work in patent US20160354348A1, “METHODS FOR PROPHYLATIC APPETITE SUPPRESSION” (Orexigen Therapeutics, Inc., priority 2005, published 2016).
Like-named read-outs stand apart in the source and are kept apart here.

Key:
[1] = Colosimo & De Michele 1999
[2] = 20-25° C.

SMILES | Elimination half-life (T1/2) [1] | t1/2 in erythrocytes (erythrocytes) | Protein bound (in vivo) [%] | Half-life (t1/2) in plasma | Half-life (t1/2) in plasma (listed as Zonisamide) [h] | Solubility in aqueous acid [2]
N[C@@H](Cc1ccc(O)c(O)c1)C(=O)O [levodopa] | about 1.5 hours | – | – | – | – | –
NS(=O)(=O)Cc1noc2ccccc12 [zonisamide, 1,2-benzisoxazole-3-methanesulfonamide] | – | about 105 hours | 40 | about 63 hours | 63 to 69 | about 200 mg/ml
